Results from PMC3724985, “Isolation, biochemical characterization, and cloning of a bacteriocin from the poultry-associated Staphylococcus aureus strain CH-91” (Applied Microbiology and Biotechnology, 2012).
Values after ≈ are worked out from the molar mass of the structure shown. “Also recorded” adds a separate entry of the source.

Assays:
[1] = type: physicochemical; details: 30 μM, radial diffusion assay, S. lutea
Description: (§1) To test the pH stability of BacCH91, a water solution of the bacteriocin (final concentration, 30 μM) was evaporated in a vacuum centrifuge and re-dissolved in (a) 100 mM sodium citrate pH 3.0, 4.0, 5.0, and 6.0; […] The solutions were incubated for 3 h at RT, and the residual activity of the bacteriocin was determined using the radial diffusion assay. The temperature stability of BacCH91 (30 μM final concentration) was determined in 50 mM Tris–HCl pH 7.4, 0.15 M NaCl and 50 mM bis-Tris pH 6.4, 0.15 M NaCl. The solutions were incubated for 1, 6, and 24 h at 37, 60, 80, and 99 °C. […] All of the above experiments were performed in triplicate. The final results are presented as means ± SD.

[2] = test system: Staphylococcus intermedius ATCC 29663; type: cell-based
[3] = test system: Micrococcus luteus CBM; assay: MIC, micro-dilution method; type: cell-based; details: M. luteus CBM, CLSI M7-A7, cation-adjusted MHB
Excerpt: (§2) S. aureus CH-91 was kindly provided by S. Takeuchi from Fukui Prefectural University, Japan (Takeuchi et al. [1999]). The strain has been deposited in the DSMZ collection under the number DSM 26258. Bacillus licheniformis NCTC 7224, Bacillus subtilis ATCC 6633, Lactococcus lactis subsp. lactis LOCK 0869, Micrococcus luteus strains DSMZ 20030 and CBM (clinical isolate), Sarcina lutea ATCC 9341, S. aureus strains ATCC 25923, M-122 (Polakowska et al. [2012]), Newman and RN4220, S. epidermidis ATCC 35347, Staphylococcus intermedius ATCC 29666, Staphylococcus pseudintermedius LMG 22219 (Devriese et al. [2005]), Staphylococcus saprophyticus ATCC 49453, Staphylococcus xylosus strains isolated from the skin of healthy chickens, Streptococcus mutans ATCC 25175, Streptococcus pneumoniae ATCC 49619, Escherichia coli K12 ATCC 10798, Klebsiella pneumoniae, Serratia marcescens, and Sphingomonas sp. AMC 3962 (Dziga et al. [2012]) were obtained from the collections of The Faculty of Biochemistry, Biophysics and Biotechnology, Jagiellonian University, Krakow, Poland. […]
(§3) The bactericidal activity of BacCH91 was determined using the micro-dilution method in compliance with Clinical and Laboratory Standards Institute guidelines M7-A7 (CLSI [2006]). […] After overnight incubation at 37 °C, the optical density (OD) at 600 nm was measured. […]

[4] = test system: Micrococcus luteus DSMZ 20030; assay: MIC, micro-dilution method; type: cell-based; details: M. luteus DSMZ 20030, as printed in the text, CLSI M7-A7, cation-adjusted MHB
Excerpt: as §2, §3

[5] = test system: staphylococcal strains; type: cell-based, Staphylococcus spp.
Excerpt: as §2, §3

[6] = test system: various S. aureus strains; type: cell-based
Excerpt: (§4) S. aureus CH-91 was kindly provided by S. Takeuchi from Fukui Prefectural University, Japan (Takeuchi et al. [1999]). The strain has been deposited in the DSMZ collection under the number DSM 26258. Bacillus licheniformis NCTC 7224, Bacillus subtilis ATCC 6633, Lactococcus lactis subsp. lactis LOCK 0869, Micrococcus luteus strains DSMZ 20030 and CBM (clinical isolate), Sarcina lutea ATCC 9341, S. aureus strains ATCC 25923, M-122 (Polakowska et al. [2012]), Newman and RN4220, S. epidermidis ATCC 35347, Staphylococcus intermedius ATCC 29666, Staphylococcus pseudintermedius LMG 22219 (Devriese et al. [2005]), Staphylococcus saprophyticus ATCC 49453, Staphylococcus xylosus strains isolated from the skin of healthy chickens, Streptococcus mutans ATCC 25175, Streptococcus pneumoniae ATCC 49619, Escherichia coli K12 ATCC 10798, Klebsiella pneumoniae, Serratia marcescens, and Sphingomonas sp. AMC 3962 (Dziga et al. [2012]) were obtained from the collections of The Faculty of Biochemistry, Biophysics and Biotechnology, Jagiellonian University, Krakow, Poland. A list of strains used for assessment of the general occurrence of the bacteriocin gene is provided in the Electronic supplementary materials (ESM; Table S1). Gram-positive and Gram-negative bacteria were maintained at 37 °C in tryptic soy broth (TSB) and Luria-Bertani broth (both obtained from Sigma), respectively.
(§5) The bactericidal activity of BacCH91 was determined using the micro-dilution method in compliance with Clinical and Laboratory Standards Institute guidelines M7-A7 (CLSI [2006]). Briefly, the bacteria were either cultivated in cation-adjusted MHB to the early exponential phase or grown overnight on agar-solidified MHB supplemented with 2.5 % LHB in the case of Streptococcus spp. and L. lactis. Subsequently, the bacteria were diluted to 1 × 10^6 CFU/ml either in MHB or in MHB supplemented with 5 % LHB, in the case of the latter bacteria. Fifty-microliter portions of bacterial suspension were mixed with an equal volume of MHB containing serial twofold dilutions of bacteriocin. After overnight incubation at 37 °C, the optical density (OD) at 600 nm was measured. The MIC was defined as the minimum bacteriocin concentration for which the increase in OD was not observed compared to uninoculated broth.

[7] = test system: Staphylococcus pseudintermedius LMG 22219; type: cell-based
Excerpt: as §4, §5

[8] = test system: Streptococcus pneumoniae ATCC 49619; type: cell-based
Excerpt: as §4, §5

[9] = test system: Staphylococcus aureus Newman; type: cell-based
Excerpt: as §4, §5

[10] = test system: Escherichia coli K12 ATCC 10798; type: cell-based
Excerpt: as §4, §5

[11] = test system: StpC; assay: Influence of StpC on biosynthesis and stability of BacCH91 in S. aureus CH-91 culture (E-64, HPLC); details: S. aureus CH-91 in TSB with or without E-64 (0.01, 0.1, 1.0 mM); samples at 5, 10, 24 h; HPLC peak area at 220 nm
Description: S. aureus CH-91 was cultured at 37 °C in TSB supplemented with the cysteine peptidase inhibitor E-64 (1-[N-[(L-3-trans-carboxyoxirane-2-carbonyl)-L-leucyl] amino]-4-guanidinobutane; Sigma) at final concentrations of 1.0, 0.1, and 0.01 mM. Aliquots were removed at 5, 10, and 24 h, and the bacteria-free supernatants were obtained by centrifugation.
To estimate the level of BacCH91, the collected supernatants were acidified with TFA (1 % final concentration, v/v) and filtered (0.45 μm filter). Aliquots (30 μl) were analyzed using HPLC (Kromasil C4 column, 250 × 4.6 mm; Supelco) and the same buffers as those used during the purification procedure. The column was flushed for 5 min following injection at a constant concentration of 34 % B. A linear gradient from 34 to 100 % B was then applied over 10 min at 1 ml/min. Under these conditions, BacCH91 was detected at 220 nm as a single peak eluting with a retention time of 14.6 min. The relative amount of bacteriocin was calculated as the area under the peak.

[12] = pH stability, residual activity by radial diffusion assay; type: physicochemical; details: 30 μM, S. lutea ATCC 9341, triplicate
Description: as §1

[13] = test system: Gram-negative strains; assay: MIC, micro-dilution method, Gram-negative strains as a group; type: cell-based; details: highest (maximal) concentration tested 100 μM, CLSI M7-A7, cation-adjusted MHB
Excerpt: as §2, §3

[14] = test system: Pseudomonas aeruginosa ATCC 27853; type: cell-based

**Q.** With `C/C=C(\NC(=O)[C@H](CCCCN)NC(=O)CNC(=O)[C@@H]1CS[C@@H](C)[C@@H](NC(=O)[C@@H]2CSC[C@@H](NC(=O)/C(=C/C)NC(=O)[C@@H](N)[C@@H](C)CC)C(=O)N[C@@H](Cc3ccccc3)C(=O)N[C@@H]([C@@H](C)CC)C(=O)NCC(=O)N2)C(=O)N2CCC[C@H]2C(=O)NCC(=O)N1)C(=O)NCC(=O)N[C@@H]1CSC[C@@H]2NC(=O)[C@H](Cc3ccccc3)NC(=O)[C@@H](CS/C=C\NC2=O)NC(=O)[C@H](CC(N)=O)NC(=O)[C@H](Cc2ccccc2)NC1=O` [BacCH91] as the compound, how does the “residual activity after 1 h at temperatures up to 80 °C” value ([1]; 50 mM Tris–HCl pH 7.4, 0.15 M NaCl and 50 mM bis-Tris pH 6.4, 0.15 M NaCl, 37, 60, 80 °C, 1 h, triplicate) read?
**A.** maintained its activity

**Q.** And the “residual activity after several hours at temperatures higher than 60 °C” value ([1]; pH 6.4 and pH 7.4 buffers with 0.15 M NaCl, 6 and 24 h time points, triplicate)?
**A.** complete inactivation

**Q.** And the “activity retained during incubation for 1 h at 80 °C” value ([1]; pH 6.4 and pH 7.4 buffers with 0.15 M NaCl, 80 °C, 1 h)?
**A.** ~100%

**Q.** What about the “residual activity after short incubation at 99 °C” value ([1]; pH 6.4 and pH 7.4 buffers with 0.15 M NaCl, 99 °C, triplicate) of the same compound?
**A.** complete inactivation

**Q.** And the MIC [2]?
**A.** 1.6 µM (≈ 3.32 µg/mL)

**Q.** What about the MIC [3] of the same compound?
**A.** 0.04 µM (≈ 0.0831 µg/mL)

**Q.** What about the MIC [4] of the same compound?
**A.** 0.0025 µM (≈ 0.00519 µg/mL)

**Q.** What about the MIC [5] of the same compound?
**A.** 1.3 to 6.0 µM

**Q.** What about the MIC [6] of the same compound?
**A.** 6.0 µM (≈ 12.5 µg/mL)

**Q.** And the MIC [7]?
**A.** 1.5 µM (≈ 3.11 µg/mL)

**Q.** What about the MIC [8] of the same compound?
**A.** 1.6 µM (≈ 3.32 µg/mL)

**Q.** And the MIC [9]?
**A.** 6.0 µM (≈ 12.5 µg/mL)

**Q.** And the MIC [10]?
**A.** >100 µM

**Q.** What about the “effect of StpC on the stability of the lantibiotic in culture” value [11] of the same compound?
**A.** does not affect the stability

**Q.** What about the “residual bactericidal activity after incubation at pH 11.0” value ([12]; 100 mM 3-cyclohexylamino-1-propanesulphonic acid-NaOH pH 11.0, 3 h at RT) of the same compound?
**A.** complete inactivation

**Q.** And the “residual bactericidal activity after incubation at pH 7.0 and higher” value ([12]; 100 mM Tris–HCl pH 7.0, 8.0, 9.0 and 100 mM CAPS-NaOH pH 10.0, 11.0, 3 h at RT)?
**A.** gradual loss of bactericidal activity

**Q.** And the “residual bactericidal activity after incubation at pH 3.0–6.0” value ([12]; 100 mM sodium citrate pH 3.0, 4.0, 5.0, 6.0, 3 h at RT)?
**A.** retained full bactericidal activity

**Q.** And the “susceptibility of Gram-negative strains to BacCH91” value [13]?
**A.** ineffective; also recorded: None of the Gram-negative species assayed were susceptible

**Q.** And the MIC [14]?
**A.** >100 µM
